Measured values from US20220135539A1, “BIARYL AMIDE COMPOUNDS, PREPARATION METHODS AND MEDICAL APPLICATIONS THEREOF” (Eternity Bioscience Inc., priority 2020, published 2022).

Experiments:
human recombinant BRAF = target: T1, human recombinant BRAF (Homo sapiens, UniProt P15056); assay: BRAF^WT Inhibition Assay (TR-FRET); type: biochemical
T1 construct: purchased BPS Bioscience 40065
Experimental: (§1) Activity of human recombinant BRAF were assessed in vitro using time-resolved fluorescence resonance energy transfer (TR-FRET) assay. The assay was performed according to the kit instructions. Briefly, the BRAF enzyme (BPS Bioscience, cat #40065) was diluted to 0.027 ng/μL using the 1× kinase buffer A (Life Tech, cat #PV6135, 5× dilution with H2O); the Fluorescein labeled-MAP2K1 (Life Tech, Cat #PV4812) was diluted to 0.5 μM; ATP (Life Tech, cat #PV3227) was diluted to 20 μM; 2.54, of each diluted reagent was added to a 384-well plate (PerkinElmer, ProxiPlate-384 Plus, 6008280) and mixed together; 2.54, serial diluted compound were added into the mixture. 104, 400-fold diluted LanthaScreen Tb-pMAP2K1 (pSer217/221) antibody (Life Tech, cat #PV4817) was then added to each kinase reaction. The reactions were incubated at Room Temperature for 1 hour. The plate was then read on PHERAstar FSX using 340/490/520 module. Inhibition data were calculated by comparison to vehicle control wells for 0% inhibition and non-stimulated control wells for 100% inhibition. Dose response curves were then generated to determine the concentration required to suppress 50% of enzymatic response (IC50) as derived by non-linear regression analysis using GraphPad Prism.

[1] = target: T2, human recombinant V600E mutant BRAF (Homo sapiens, UniProt P15056, V600E); assay: BRAF^V600E Inhibition Assay (TR-FRET); type: biochemical
T2 construct: purchased BPS Bioscience 40533
Experimental: Activity of human recombinant V600E mutant BRAF were assessed in vitro using time-resolved fluorescence resonance energy transfer (TR-FRET) assay. The assay was performed according to the kit instructions. Briefly, the V600E mutant BRAF enzyme (BPS Bioscience, cat #40533) was diluted to 0.027 ng/μL using the 1× kinase buffer A (Life Tech, cat #PV6135, 5× dilution with H2O); the Fluorescein labeled-MAP2K1 (Life Tech, Cat #PV4812) was diluted to 0.5 μM; ATP (Life Tech, cat #PV3227) was diluted to 20 μM; 2.5 μl of each diluted reagent was added to a 384-well (PerkinElmer, ProxiPlate-384 Plus, 6008280) plate and mixed together; 2.54, serial diluted compounds were added into the mixture. 104, 400-fold diluted LanthaScreen Tb-pMAP2K1 (pSer217/221) antibody (Life Tech, cat #PV4817) was then added to each kinase reaction. The reactions were incubated at Room Temperature for 1 hour. The plate was then read on PHERAstar FSX using 340/490/520 module. Inhibition data were calculated by comparison to vehicle control wells for 0% inhibition and non-stimulated control wells for 100% inhibition. Dose response curves were then generated to determine the concentration required to suppress 50% of enzymatic response (IC50) as derived by non-linear regression analysis using GraphPad Prism.

human recombinant cRAF = human recombinant cRAF (Homo sapiens, UniProt P04049); assay: cRAF Inhibition Assay (TR-FRET); type: biochemical
Experimental: as §1, with “cRAF” for “BRAF”, “#40008)” for “#40065)”

[2] = system: NCI-H358 (KRAS^G12C) non-small cell lung cancer cell; assay: NCI-H358 Cancer Cell Growth Inhibition Assay (CellTiter-Glo); type: cell-based, human; conditions: for GI50: Homo sapiens, 72 h, NCI-H358 cells, incubated for 3 days, CellTiter-Glo
Experimental: Activity of human NCI-H358 (KRAS^G12C) non-small cell lung cancer cell growth inhibition was assessed in vitro using CellTiter-Glo® Luminescent Cell Viability Assay. The assay was performed according to the kit instructions (Promega, cat #G7570). Briefly, NCI-H358 cells (ATCC, #CRL-5807) were seeded in 96-well plates at a density of 2,500 cells/well in and cells were cultured overnight in a humidified, 5% CO2 cell culture incubator at 37° C. 10 μL serial diluted compounds were added into each cell-culture well and incubated for 3 days. 100 μL CellTiter-Glo® Reagent was added into each well. The reactions were incubated at Room Temperature for 10 minutes, and luminescence signals were recorded on a Tecan Luminescence Plate Reader. Inhibition data were calculated by comparison to vehicle control wells for 0% inhibition and non-stimulated control wells for 100% inhibition. Dose response curves were then generated to determine the concentration required to suppress 50% of cellular growth response (GI50) as derived by non-linear regression analysis using GraphPad Prism.

T1 sequence (P15056 whole entry): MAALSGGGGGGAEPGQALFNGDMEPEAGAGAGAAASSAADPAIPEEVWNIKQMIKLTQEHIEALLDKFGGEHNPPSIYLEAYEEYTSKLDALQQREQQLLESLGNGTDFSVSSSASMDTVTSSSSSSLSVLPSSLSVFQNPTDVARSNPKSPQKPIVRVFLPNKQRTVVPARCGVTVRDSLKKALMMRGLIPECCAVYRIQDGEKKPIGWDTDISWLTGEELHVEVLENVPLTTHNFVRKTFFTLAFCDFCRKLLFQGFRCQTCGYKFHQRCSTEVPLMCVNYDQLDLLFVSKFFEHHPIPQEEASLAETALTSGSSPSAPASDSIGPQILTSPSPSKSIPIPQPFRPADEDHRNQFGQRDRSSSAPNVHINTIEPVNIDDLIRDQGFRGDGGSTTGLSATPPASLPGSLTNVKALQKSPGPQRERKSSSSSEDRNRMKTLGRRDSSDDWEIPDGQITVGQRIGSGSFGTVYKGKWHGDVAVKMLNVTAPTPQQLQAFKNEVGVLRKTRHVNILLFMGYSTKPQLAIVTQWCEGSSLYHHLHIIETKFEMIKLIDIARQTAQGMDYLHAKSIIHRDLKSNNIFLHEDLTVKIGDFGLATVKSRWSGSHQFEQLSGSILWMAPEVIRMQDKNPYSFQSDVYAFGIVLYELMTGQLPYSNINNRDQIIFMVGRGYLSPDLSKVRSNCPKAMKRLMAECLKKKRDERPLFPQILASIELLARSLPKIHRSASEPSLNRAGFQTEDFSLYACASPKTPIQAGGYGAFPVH
T2 sequence (P15056 whole entry V600E): as the sequence (P15056 whole entry) above, with V600E counted along it
Sequence of human recombinant cRAF (P04049 whole entry Y340D/Y341D, form open): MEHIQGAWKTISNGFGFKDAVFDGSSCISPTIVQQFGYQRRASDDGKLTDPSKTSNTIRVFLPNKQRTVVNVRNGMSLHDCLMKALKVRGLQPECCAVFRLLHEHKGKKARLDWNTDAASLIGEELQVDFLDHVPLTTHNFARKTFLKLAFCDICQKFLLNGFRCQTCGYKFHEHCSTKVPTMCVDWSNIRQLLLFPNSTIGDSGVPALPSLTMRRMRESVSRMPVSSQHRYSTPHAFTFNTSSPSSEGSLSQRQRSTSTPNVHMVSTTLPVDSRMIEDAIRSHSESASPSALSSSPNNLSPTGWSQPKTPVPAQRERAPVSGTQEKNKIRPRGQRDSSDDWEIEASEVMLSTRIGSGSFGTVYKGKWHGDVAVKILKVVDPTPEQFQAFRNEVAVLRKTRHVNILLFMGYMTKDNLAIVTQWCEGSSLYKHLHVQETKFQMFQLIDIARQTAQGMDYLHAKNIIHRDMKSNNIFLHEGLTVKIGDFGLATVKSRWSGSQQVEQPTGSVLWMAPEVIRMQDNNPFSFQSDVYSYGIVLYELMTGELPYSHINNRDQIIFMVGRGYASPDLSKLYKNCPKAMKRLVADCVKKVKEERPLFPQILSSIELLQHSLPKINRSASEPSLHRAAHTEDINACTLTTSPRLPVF

SMILES	IC50 (human recombinant BRAF) [nM]	IC50 [1] [nM]	IC50 (human recombinant cRAF) [nM]	cell growth inhibition in H358 cancer line compared to LXH254 [2]	GI50 [2] [nM]
Cc1ccc(NC(=O)c2ccc3c(c2)CC3)cc1-c1cc(OCCO)nc(N2CCOCC2)c1 [Example 2, N-(3-(2-(2-hydroxyethoxy)-6-morpholinopyridin-4-yl)-4-methylphenyl)bicyclo[4.2.0]octa-1(6),2,4-triene-3-carboxamide]	38.5	18	7.9		
Cc1ccc(NC(=O)c2ccc3c(c2)C(F)(F)CC3)cc1-c1cc(OCCO)nc(N2CCOCC2)c1 [Example 3, 3,3-difluoro-N-(3-(2-(2-hydroxyethoxy)-6-morpholinopyridin-4-yl)-4-methylphenyl)-2,3-dihydro-1H-indene-5-carboxamide]	170	88	27		
Cc1ccc(NC(=O)c2ccc3c(c2)C(F)(F)CO3)cc1-c1cc(OCCO)nc(N2CCOCC2)c1 [Example 4, 3,3-difluoro-N-(3-(2-(2-hydroxyethoxy)-6-morpholinopyridin-4-yl)-4-methylphenyl)-2,3-dihydrobenzofuran-5-carboxamide]	260	96	51		
Cc1ccc(NC(=O)c2ccc3c(c2)CCC3(F)F)cc1-c1cc(OCCO)nc(N2CCOCC2)c1 [Example 5, 1,1-difluoro-N-(3-(2-(2-hydroxyethoxy)-6-morpholinopyridin-4-yl)-4-methylphenyl)-2,3-dihydro-1H-indene-5-carboxamide]	92	65	39		
Cc1ccc(NC(=O)c2cnc3c(c2)CCC3(F)F)cc1-c1cc(OCCO)nc(N2CCOCC2)c1 [Example 6, 7,7-difluoro-N-(3-(2-(2-hydroxyethoxy)-6-morpholinopyridin-4-yl)-4-methylphenyl)-6,7-dihydro-5H-cyclopenta[b]pyridine-3-carboxamide]	26	8.4	3.9		
Cc1ccc(NC(=O)c2cnc3c(c2)C(F)(F)CC3)cc1-c1cc(OCCO)nc(N2CCOCC2)c1 [Example 7, 5,5-difluoro-N-(3-(2-(2-hydroxyethoxy)-6-morpholinopyridin-4-yl)-4-methylphenyl)-6,7-dihydro-5H-cyclopenta[b]pyridine-3-carboxamide]	46	18	10	better or similar cell growth inhibition	2800
Cc1ccc(NC(=O)c2ccc3c(c2)OC(C)(C)O3)cc1-c1cc(OCCO)nc(N2CCOCC2)c1 [Example 8, N-(3-(2-(2-hydroxyethoxy)-6-morpholinopyridin-4-yl)-4-methylphenyl)-2,2-dimethylbenzo[d][1,3]dioxole-5-carboxamide]	140	62	25	better or similar cell growth inhibition	220
Cc1ccc(NC(=O)c2ccc3c(c2)OCO3)cc1-c1cc(OCCO)nc(N2CCOCC2)c1 [Example 9, N-(3-(2-(2-hydroxyethoxy)-6-morpholinopyridin-4-yl)-4-methylphenyl)benzo[d][1,3]dioxole-5-carboxamide]	42	18	6.7	better or similar cell growth inhibition	1600
Cc1ccc(NC(=O)c2cc3c(cn2)OC(F)(F)O3)cc1-c1cc(OCCO)nc(N2CCOCC2)c1 [Example 10, 2,2-difluoro-N-(3-(2-(2-hydroxyethoxy)-6-morpholinopyridin-4-yl)-4-methylphenyl)-[1,3]dioxolo[4,5-c]pyridine-6-carboxamide]	95	55	25	better or similar cell growth inhibition	85
Cc1ncc(NC(=O)c2ccc3c(c2)OC(F)(F)O3)cc1-c1cc(OCCO)nc(N2CCOCC2)c1 [Example 11, 2,2-difluoro-N-(2′-(2-hydroxyethoxy)-2-methyl-6′-morpholino-[3,4′-bipyridin]-5-yl)benzo[d][1,3]dioxole-5-carboxamide]	70	39	10		
Cc1ccc(NC(=O)c2ccc3c(c2)OCCO3)cc1-c1cc(OCCO)nc(N2CCOCC2)c1 [Example 13, N-(3-(2-(2-hydroxyethoxy)-6-morpholinopyridin-4-yl)-4-methylphenyl)-2,3-dihydrobenzo[b][1,4]dioxine-6-carboxamide]	31	13	4.7	better or similar cell growth inhibition	1200
